Measured values reported in patent US5425935A, “Imaging of infections” (British Technology Group Limited, priority 1991, dated 1995).
Blank lines part the entries; values can stand above or below the compound they belong to.

Columns and labels:
[1] = Extent of complexation with Tc-99m prior to purification; assay type: physicochemical
Protocol: A further sample of Tc-99m-CIP complex was obtained as generally described in Example 1. Samples of Tc-99m complexed ofloxacin (obtained in powder form from Hoechst) and norfloxacin (obtained in powder form from Merck Sharpe & Dohme) were obtained as described for ciprofloxacin. Prior to purification, it was determined that the extent of complexation percent was as follows: […]

[2] = system: Staphylococcus aureus (SA); assay: Take up of Tc-99m complexes by Staphylococcus aureus (SA), percentage radionuclide retained; assay type: cell-based; conditions: for percent radionuclide retained in the microorganism: 4 hours' incubation, purified complexes
[3] = system: Pseudomonas aboubinoba (PA); assay: Take up of Tc-99m complexes by Pseudomonas aboubinoba (PA), percentage radionuclide retained; assay type: cell-based; conditions: for percent radionuclide retained in the microorganism: 4 hours' incubation, purified complexes
Escherichia coli (EC) = assay: Take up of Tc-99m complexes by Escherichia coli (EC), percentage radionuclide retained; assay type: cell-based; conditions: for percent radionuclide retained in the microorganism: 4 hours' incubation, purified complexes
[4] = 2 hr. incubation, not further purified
[5] = 4 hr. incubation, not further purified
[6] = 21 hr. incubation, CIP not further purified

- extent of complexation percent [1]: 76.5%
Structure (SMILES): CCn1cc(C(=O)O)c(=O)c2cc(F)c(N3CCNCC3)cc21 [norfloxacin]
- percent radionuclide retained in the microorganism [2]: 37.86%
- percent radionuclide retained in the microorganism [3]: 44.53%
- percent radionuclide retained in the microorganism (Escherichia coli (EC)): 48.28%

- extent of complexation percent [1]: 88.5%
Structure (SMILES): CC1COc2c(N3CCN(C)CC3)c(F)cc3c(=O)c(C(=O)O)cn1c23 (stereo not drawn) [ofloxacin]
- percent radionuclide retained in the microorganism [2]: 76.94%
- percent radionuclide retained in the microorganism [3]: 79.39%
- percent radionuclide retained in the microorganism (Escherichia coli (EC)): 77.95%

Structure (SMILES): O=C(O)c1cn(C2CC2)c2cc(N3CCNCC3)c(F)cc2c1=O [Tc-99m-ciprofloxacin, metal not drawn]
- extent of complexation percent [1]: 51.7%
- percentage radionuclide retained in the microorganisms [2, 4]: 17.24 percentage
- percent radionuclide retained in the microorganism [2]: 58.47%
- percentage radionuclide retained in the microorganisms [2, 5]: 14.63 percentage
- percentage radionuclide retained in the microorganisms [2, 6]: 15.08 percentage
- percentage radionuclide retained in the microorganisms [3, 4]: 24.14 percentage
- percent radionuclide retained in the microorganism [3]: 50.20%
- percentage radionuclide retained in the microorganisms [3, 5]: 16.67 percentage
- percentage radionuclide retained in the microorganisms [3, 6]: 21.32 percentage
- percentage radionuclide retained in the microorganisms (Escherichia coli (EC); [4]): 15.78 percentage
- percent radionuclide retained in the microorganism (Escherichia coli (EC)): 43.89%
- percentage radionuclide retained in the microorganisms (Escherichia coli (EC); [5]): 11.72 percentage
- percentage radionuclide retained in the microorganisms (Escherichia coli (EC); [6]): 12.90 percentage
